Activity calls are given as the source filed them. No cut-off for these calls is given here.
How the values were obtained:
[1] = Inhibition of human recombinant PLAP using biotinylated CDP as substrate incubated for 30 mins by chemiluminescent assay
[2] = target: T1, Alkaline phosphatase, placental type (Homo sapiens, UniProt P05187); assay: Binding affinity to human PLAP incubated for 15 mins by Fluorescence polarization assay
HeLa [3] = assay: Inhibition of human recombinant PLAP expressed in human HeLa cells assessed as fluorescence intensity at 100 nM incubated for 1 hr by FACS analysis; type: cell-based
HeLa [4] = assay: Antitumor activity against human HeLa cells xenografted in […] nu/nu mouse assessed as cell accumulation in liver at 2.5 micromol/kg, iv incubated for 1 hr by microscopic analysis; type: functional, organism-based; details: dose 2.5 µmol/kg
SK-OV-3 [5] = assay: Inhibition of human recombinant PLAP expressed in human SK-OV-3 cells assessed as localization of cell on membrane at 120 nM incubated for 15 mins by Hoechst 33342 staining based laser microscopic analysis
HeLa [6] = assay: Induction of cell death in human HeLa cells incubated for 72 hrs in presence of uniCAR T cells by microscopic analysis; type: functional, cell-based
HeLa [7] = assay: Antitumor activity against human HeLa cells xenografted in […] nu/nu mouse assessed as cell accumulation in intestine at 2.5 micromol/kg, iv incubated for 1 hr by microscopic analysis; type: functional, organism-based; details: dose 2.5 µmol/kg
HeLa [8] = assay: Antitumor activity against human HeLa cells xenografted in […] nu/nu mouse assessed as cell accumulation in spleen at 2.5 micromol/kg, iv incubated for 1 hr by microscopic analysis; type: functional, organism-based; details: dose 2.5 µmol/kg
SK-OV-3 [9] = assay: Inhibition of human recombinant PLAP expressed in human SK-OV-3 cells assessed as fluorescence intensity at 100 nM incubated for 1 hr by FACS based flow cytometry analysis; type: cell-based
HeLa [10] = assay: Antitumor activity against human HeLa cells xenografted in […] nu/nu mouse assessed as cell accumulation in heart at 2.5 micromol/kg, iv incubated for 1 hr by microscopic analysis; type: functional, organism-based; details: dose 2.5 µmol/kg
HeLa [11] = assay: Inhibition of human recombinant PLAP expressed in human HeLa cells assessed as localization of cell on membrane at 120 nM incubated for 15 mins by Hoechst 33342 staining based laser microscopic analysis
HeLa [12] = assay: Antitumor activity against human HeLa cells xenografted in […] nu/nu mouse assessed as cell accumulation in lung at 2.5 micromol/kg, iv incubated for 1 hr by microscopic analysis; type: functional, organism-based; details: dose 2.5 µmol/kg
OVCAR-3 = assay: Inhibition of human recombinant PLAP expressed in human OVCAR-3 cells assessed as fluorescence intensity at 100 nM incubated for 1 hr by FACS based flow cytometry analysis; type: cell-based
[13] = target: T2, Alkaline phosphatase, tissue-nonspecific isozyme (Homo sapiens) (UniProt P05186); assay: Binding affinity to TNAP (unknown origin) incubated for 15 mins by Fluorescence polarization assay
T2 sequence (whole entry): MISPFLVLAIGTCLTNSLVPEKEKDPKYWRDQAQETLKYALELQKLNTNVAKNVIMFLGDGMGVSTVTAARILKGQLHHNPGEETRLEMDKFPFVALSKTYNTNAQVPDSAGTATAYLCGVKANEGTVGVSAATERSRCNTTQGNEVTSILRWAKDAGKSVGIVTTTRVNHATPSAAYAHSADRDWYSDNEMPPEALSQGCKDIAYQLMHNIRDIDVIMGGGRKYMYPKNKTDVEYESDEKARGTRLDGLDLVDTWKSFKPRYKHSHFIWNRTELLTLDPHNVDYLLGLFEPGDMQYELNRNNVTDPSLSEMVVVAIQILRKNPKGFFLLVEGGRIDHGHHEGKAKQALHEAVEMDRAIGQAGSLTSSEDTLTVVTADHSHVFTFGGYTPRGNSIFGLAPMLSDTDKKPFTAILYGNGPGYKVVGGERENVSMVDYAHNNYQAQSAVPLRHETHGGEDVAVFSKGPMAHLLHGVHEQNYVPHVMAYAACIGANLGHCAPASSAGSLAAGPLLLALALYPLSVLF

[14] = target: T1, Alkaline phosphatase, placental type; assay: Inhibition of human PLAP using biotinylated CDP as substrate incubated for 30 mins by chemiluminescent assay
[15] = target: T2, Alkaline phosphatase, tissue-nonspecific isozyme (Homo sapiens); assay: Inhibition of TNAP (unknown origin) at 20 uM using biotinylated CDP as substrate incubated for 30 mins by chemiluminescent assay

T1 sequence (P05187 whole entry): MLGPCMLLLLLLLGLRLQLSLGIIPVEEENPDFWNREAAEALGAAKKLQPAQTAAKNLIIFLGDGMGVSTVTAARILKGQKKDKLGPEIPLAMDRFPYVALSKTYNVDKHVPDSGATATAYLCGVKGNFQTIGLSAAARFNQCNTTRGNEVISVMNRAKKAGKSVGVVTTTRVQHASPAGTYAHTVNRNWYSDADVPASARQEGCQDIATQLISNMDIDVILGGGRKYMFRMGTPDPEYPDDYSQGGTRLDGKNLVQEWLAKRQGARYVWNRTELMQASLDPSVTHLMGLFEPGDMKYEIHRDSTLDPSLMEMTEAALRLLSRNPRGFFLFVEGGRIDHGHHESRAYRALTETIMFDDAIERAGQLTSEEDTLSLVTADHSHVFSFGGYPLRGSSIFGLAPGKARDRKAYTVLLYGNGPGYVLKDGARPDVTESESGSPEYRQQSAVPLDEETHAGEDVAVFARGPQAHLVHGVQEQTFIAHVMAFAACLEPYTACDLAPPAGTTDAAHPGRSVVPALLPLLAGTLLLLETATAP

Row | Structure (SMILES) | IC50 [1] | Activity [2] | further results
1 | NC(=O)CC[C@H](C(=O)Nc1cccc(Oc2ccccc2)c1)n1cc(CNC(=O)c2ccc3ncn(CC(=O)c4ccc(O)c(O)c4)c3c2)nn1 | 5 µM | Active | –
2 | Cc1cc(-c2cnccn2)ccc1NC(=O)[C@@H](CCC(N)=O)n1cc(CNC(=O)c2ccc3ncn(CC(=O)c4ccc(O)c(O)c4)c3c2)nn1 | 2.4 µM | Active | –
3 | COc1c(Cl)cc(-c2cccc(C[C@@H](NC(=O)c3cc(-c4ccc(C)o4)[nH]n3)C(=O)NCCOCCOCCNC(=S)Nc3ccc(-c4c5ccc(=O)cc-5oc5cc(O)ccc45)c(C(=O)O)c3)c2)cc1Cl | – | – | Activity (HeLa [3]): Active; Activity (HeLa [4]): Active; Activity (SK-OV-3 [5]): Active; Activity (HeLa [6]): Active; Activity (HeLa [7]): Active; Activity (HeLa [8]): Active; Activity (SK-OV-3 [9]): Active; Activity (HeLa [10]): Active; Activity (HeLa [11]): Active; Activity (HeLa [12]): Active; Activity (OVCAR-3): Active
4 | Cc1ccc2c(c1)NC(=O)C2CC(=O)N[C@@H](Cc1ccc(-c2ccc(Cl)cc2C(F)(F)F)cc1)C(=O)O (stereo partly drawn) | 0.24 µM | Active | –
5 | CC(C)(C)OC(=O)n1c(-c2ccccc2C[C@H](NC(=O)c2cnc3ccccn3c2=O)C(=O)O)cc2c(Cl)cccc21 | 4 µM | Active | –
6 | COc1c(Cl)cc(-c2cccc(C[C@@H](NC(=O)c3cc(-c4ccc(C)o4)[nH]n3)C(=O)O)c2)cc1Cl | – | Active | Activity [13]: Active; IC50 [14]: 0.032 µM; inhibition [15]: Active
7 | Cc1cc(-c2cnccn2)ccc1NC(=O)[C@H](CCC(N)=O)n1cc(CNC(=O)c2ccc3ncn(CC(=O)c4ccc(O)c(O)c4)c3c2)nn1 | 2.5 µM | Active | –
8 | NC(=O)CC[C@@H](C(=O)Nc1cccc(Oc2ccccc2)c1)n1cc(CNC(=O)c2ccc3ncn(CC(=O)c4ccc(O)c(O)c4)c3c2)nn1 | 0.84 µM | Active | –
9 | COc1c(Cl)cc(-c2cccc(C[C@H](NC(=O)c3cc(-c4ccc(C)o4)[nH]n3)C(=O)O)c2)cc1Cl | 0.13 µM | Active | –
10 | CC(C)(C)OC(=O)n1c(-c2ccccc2C[C@@H](NC(=O)c2cnc3ccccn3c2=O)C(=O)O)cc2c(Cl)cccc21 | 13 µM | Active | –

More lines, main results first:

Row | IC50 [1] | Activity [2] | Structure (SMILES) | further results
11 | > 20 µM | – | Cc1cc(NC(=O)[C@@H](CCC(=O)N[C@@H](CCC(=O)O)C(=O)N[C@@H](CCCCN)C(N)=O)NC(=O)CC(C)(C)CC(N)=O)ccc1Br | –
12 | 19 µM | Active | Cc1ccc(NC(=O)NCC#Cc2ccc(C[C@H](NC(=O)c3nn(C)c(C)c3Br)C(=O)O)cc2)cc1 | –
13 | 16 µM | Active | C[C@@H]1CCC[C@H](C)N1CCC(=O)N[C@@H](CCC(=O)N[C@@H](CCC(=O)O)C(=O)N[C@@H](CCCCN)C(N)=O)C(=O)NCCCSCc1ccc(F)cc1 | –
14 | > 20 µM | – | Cc1cc(NC(=O)[C@H](CCC(=O)NCC(=O)N[C@@H](CCCCN)C(N)=O)NC(=O)CC(C)(C)CC(N)=O)ccc1Br | –
15 | > 20 µM | Active | C[C@@H]1CCC[C@H](C)N1CCC(=O)N[C@@H](CCC(=O)NCC(=O)N[C@@H](CCCCN)C(N)=O)C(=O)NCCCSCc1ccc(F)cc1 | –
16 | > 20 µM | Active | Cc1ccc(NC(=O)NCC#Cc2ccc(C[C@@H](NC(=O)c3nn(C)c(C)c3Br)C(=O)O)cc2)cc1 | –
17 | 3.9 µM | Active | COC(=O)[C@H](Cc1ccc(-c2ccc(Cl)cc2C(F)(F)F)cc1)NC(=O)CC1C(=O)Nc2cc(C)ccc21 (stereo partly drawn) | –

From ChEMBL document CHEMBL5150009, “Specific Inhibitor of Placental Alkaline Phosphatase Isolated from a DNA-Encoded Chemical Library Targets Tumor of the Female Reproductive Tract” (J Med Chem, 2021)
